According to publication PMC5487684, “Safety, Pharmacokinetics, and Antiviral Activity of a Novel HIV Antiviral, ABX464, in Treatment-Naive HIV-Infected Subjects in a Phase 2 Randomized, Controlled Study” (Antimicrobial Agents and Chemotherapy, 2017):
Where two headings read alike, the source gives them in different places.

Columns and labels:
[1] = Plasma pharmacokinetics of ABX464 and ABX464-NGlc in HIV-infected subjects; assay type: in vivo, human; conditions: for AUC(0-inf) / Cmax / half-life / Tmax: human, plasma, po
Experimental: (§1) Plasma samples were analyzed for ABX464 and ABX464-NGlc using validated bioanalytical methods by Atlanbio (Saint Nazaire, France) according to good laboratory practices. Pharmacokinetic parameters were calculated by noncompartmental analysis (NCA), using Phoenix WinNonlin software (Pharsight Corporation) running on a personal computer. On day 1, the following PK parameters were generated: Cmax, the time to Cmax (Tmax), lag time (tlag), elimination rate constant (kel), area under the concentration-time curve (AUC) from time zero to time t (AUC0–t), AUC from time zero to infinity (AUC0–∞), apparent clearance (CL/F), and apparent volume of distribution (V/F). On the other days of PK assessment, only Cmax, Tmax, tlag, kel, and AUC0–t were generated. The secondary analysis concerned pharmacodynamic (PD) activity, as expressed by CD4 and CD8 levels and viral load across time. The HIV viral load was analyzed in the prequalified individual local study center laboratories. CD4 and CD8 cell counts were also determined in the local study center laboratories. With respect to the viral load, changes in the log-transformed viral load values between 24 h postdose and predose were calculated on each day, and a comparison between each dose level and pooled placebo data was made. Moreover, the rate of success (defined as a decrease in the viral load value of at least 0.5 log) was evaluated for each treatment (including placebo) and compared between treatments.

[2] = system: HIV; assay: HIV viral load (HIV-1 RNA copies per milliliter) in treatment-naive HIV-infected patients; assay type: in vivo
Experimental: Safety assessments and laboratory tests were carried out according to the schedules described in Table S4 for groups dosed every day, every 3 days, and 3 times a day. Follow-up visits were scheduled for 7 days after the last dose and subsequently once every week in order to assess the elimination of the main ABX464 metabolite and to assess the viral load. Follow-up visits were terminated when the virus load was within 0.5 log of the baseline value or after 3 follow-up visits, whichever came first. Prior to the statistical analyses, AEs were coded using the Medical Dictionary for Regulatory Activities (MedDRA dictionary; last available version) in order to be tabulated by system organ class (SOC) and preferred term (PT). The AEs were analyzed according to the treatment emergence phase from the first study drug administration on day 1 up to 48 h after the last study drug administration. The number and percentage of subjects with at least one TEAE were tabulated by SOC and PT for each group and dose. The number of occurrences of TEAEs was also analyzed in the same way by SOC and PT for each group and dose, by grade of severity for each group and dose, and by level of causality to the study drug for each group and dose.
as §1
No formal sample size determination was done. The aim of the study was to obtain reliable and consistent data and to expose a limited number of subjects to ABX464. To achieve this aim, six subjects per group received ABX464. A mixed model analysis of covariance of the changes in the viral load compared to that at the baseline was conducted on log-transformed values. Baseline parameters and age were covariates, treatment groups were fixed effects, and subjects were random effects.

FC(F)(F)Oc1ccc(Nc2ccc3cccc(Cl)c3n2)cc1 [ABX464]
Concomitant food effect on relative bioavailability ([1]; fed vs fasted): substantial increase in the relative bioavailability
AUC(0-inf) ([1]; 50 mg, HIV-infected, single oral 50mg (fasted), N 7, read-out: AUC0-∞, GM): 42.8 ng·h/mL
AUC(0-inf) ([1]; 50 mg, HIV-infected, single oral 50mg (fasted), N 7, read-out: AUC0-∞, Mean): 55.4 ng·h/mL
Cmax ([1]; 50 mg, HIV-infected, single oral 50mg (fasted), N 7, read-out: Cmax, GM): 14.9 ng/mL
Cmax ([1]; 50 mg, HIV-infected, single oral 50mg (fasted), N 7, read-out: Cmax, Mean): 19.4 ng/mL
half-life ([1]; 50 mg, HIV-infected, single oral 50mg (fasted), N 7, read-out: t1/2, GM (converted)): 0.94 h
half-life ([1]; 50 mg, HIV-infected, single oral 50mg (fasted), N 7, read-out: t1/2, Mean (converted)): 0.96 h
Tmax ([1]; 50 mg, HIV-infected, single oral 50mg (fasted), N 7, read-out: tmax, GM): 1.8 h
Tmax ([1]; 50 mg, HIV-infected, single oral 50mg (fasted), N 7, read-out: tmax, Mean): 1.9 h
half-life ([1]; HIV-infected subjects, oral, read-out: half-life (t1/2) (converted)): ~1 h
Subjects demonstrating an antiviral response ([2]; 75 mg once a day): 16%
Subjects demonstrating an antiviral response ([2]; 100 mg once a day): 33%
Subjects demonstrating an antiviral response ([2]; 150 mg once a day): 66%
Mixed model analysis, RNA viral load Day 2 to Day 14, Treatment Group Estimate ([2]; ABX464 150 mg once a day vs. Placebo): -0.1559
Measurements demonstrating a 0.5 log10 decrease over the treatment period ([2]; ABX464-treated subjects): 49 measurements
Change in log10 no. of RNA copies/ml from that at the baseline ([2]; Group 1 (25 mg every 3 days, fasted), subject 102, day 4): −0.99 log10 no. of RNA copies/ml
Change in log10 no. of RNA copies/ml from that at the baseline ([2]; Group 1 (25 mg every 3 days, fasted), subject 102, day 5): −1.47 log10 no. of RNA copies/ml
Change in log10 no. of RNA copies/ml from that at the baseline ([2]; Group 1 (25 mg every 3 days, fasted), subject 102, day 7): −1.36 log10 no. of RNA copies/ml
Change in log10 no. of RNA copies/ml from that at the baseline ([2]; Group 1 (25 mg every 3 days, fasted), subject 102, day 8): −1.57 log10 no. of RNA copies/ml
Change in log10 no. of RNA copies/ml from that at the baseline ([2]; Group 1 (25 mg every 3 days, fasted), subject 102, day 10): −1.43 log10 no. of RNA copies/ml
Change in log10 no. of RNA copies/ml from that at the baseline ([2]; Group 1 (25 mg every 3 days, fasted), subject 102, day 11): −1.61 log10 no. of RNA copies/ml
Change in log10 no. of RNA copies/ml from that at the baseline ([2]; Group 1 (25 mg every 3 days, fasted), subject 102, day 13): −1.4 log10 no. of RNA copies/ml
Change in log10 no. of RNA copies/ml from that at the baseline ([2]; Group 1 (25 mg every 3 days, fasted), subject 102, day 14): −1.51 log10 no. of RNA copies/ml
Change in log10 no. of RNA copies/ml from that at the baseline ([2]; Group 1 (25 mg every 3 days, fasted), subject 105, day 14): −0.5 log10 no. of RNA copies/ml
Change in log10 no. of RNA copies/ml from that at the baseline ([2]; Group 1 (25 mg every 3 days, fasted), subject 105, day 16): −0.52 log10 no. of RNA copies/ml
Change in log10 no. of RNA copies/ml from that at the baseline ([2]; Group 1 (25 mg every 3 days, fasted), subject 105, day 17): −0.65 log10 no. of RNA copies/ml
Change in log10 no. of RNA copies/ml from that at the baseline ([2]; Group 1 (25 mg every 3 days, fasted), subject 106, day 5): −0.72 log10 no. of RNA copies/ml
Change in log10 no. of RNA copies/ml from that at the baseline ([2]; Group 1 (25 mg every 3 days, fasted), subject 106, day 11): −0.56 log10 no. of RNA copies/ml
Change in log10 no. of RNA copies/ml from that at the baseline ([2]; Group 1 (25 mg every 3 days, fasted), subject 106, day 13): −0.62 log10 no. of RNA copies/ml
Change in log10 no. of RNA copies/ml from that at the baseline ([2]; Group 1 (25 mg every 3 days, fasted), subject 106, day 16): −0.74 log10 no. of RNA copies/ml
Change in log10 no. of RNA copies/ml from that at the baseline ([2]; Group 1 (25 mg every 3 days, fasted), subject 106, day 17): −0.51 log10 no. of RNA copies/ml
Change in log10 no. of RNA copies/ml from that at the baseline ([2]; Group 1 (25 mg every 3 days, fasted), subject 106, day 19): −0.61 log10 no. of RNA copies/ml
Change in log10 no. of RNA copies/ml from that at the baseline ([2]; Group 2 (25 mg q.d., fasted), subject 201, day 14): −0.54 log10 no. of RNA copies/ml
Change in log10 no. of RNA copies/ml from that at the baseline ([2]; Group 4 (50 mg t.i.d., fed), subject 2007, day 10): −0.62 log10 no. of RNA copies/ml
Change in log10 no. of RNA copies/ml from that at the baseline ([2]; Group 4 (50 mg t.i.d., fed), subject 2009, day 10): −0.72 log10 no. of RNA copies/ml
Change in log10 no. of RNA copies/ml from that at the baseline ([2]; Group 4 (50 mg t.i.d., fed), subject 2009, day 14): −1.23 log10 no. of RNA copies/ml
Change in log10 no. of RNA copies/ml from that at the baseline ([2]; Group 4 (50 mg t.i.d., fed), subject 2009, day 18): −1.39 log10 no. of RNA copies/ml
Change in log10 no. of RNA copies/ml from that at the baseline ([2]; Group 5 (75 mg q.d., fed), subject 605, day 2): −0.71 log10 no. of RNA copies/ml
Change in log10 no. of RNA copies/ml from that at the baseline ([2]; Group 5 (75 mg q.d., fed), subject 605, day 4): −0.77 log10 no. of RNA copies/ml
Change in log10 no. of RNA copies/ml from that at the baseline ([2]; Group 5 (75 mg q.d., fed), subject 605, day 5): −0.76 log10 no. of RNA copies/ml
Change in log10 no. of RNA copies/ml from that at the baseline ([2]; Group 5 (75 mg q.d., fed), subject 605, day 7): −0.89 log10 no. of RNA copies/ml
Change in log10 no. of RNA copies/ml from that at the baseline ([2]; Group 5 (75 mg q.d., fed), subject 605, day 8): −0.83 log10 no. of RNA copies/ml
Change in log10 no. of RNA copies/ml from that at the baseline ([2]; Group 5 (75 mg q.d., fed), subject 605, day 10): −1.06 log10 no. of RNA copies/ml
Change in log10 no. of RNA copies/ml from that at the baseline ([2]; Group 5 (75 mg q.d., fed), subject 605, day 11): −1.05 log10 no. of RNA copies/ml
